Test results: patent US7407775B2, “Method for identifying Listeria monocytogenes and culture medium” (Biomerieux S.A., priority 2000, dated 2008)

Tests used:
Assay type in all cases: cell-based
Conditions in all cases: 37° C., substrate 250 mg/l
Listeria innocua 171 = experiment: Experiment 2: octanoate esterase substrates with different Indoxyl-based chromogenic markers; set-up: key: —: the symbol “-” corresponds to the absence of color or intensity; 0 corresponds to no activity; 0.1 corresponds to a trace of color; 0.5 corresponds to very pale coloration; 1 corresponds to clear but low-intensity coloration; 1.5 corresponds to a degree of coloration intermediate between scores 1 and 2; 2 corresponds to clear coloration of moderate intensity; 2.5 corresponds to a degree of coloration intermediate between scores 2 and 3; 3 corresponds to intense coloration; 3.5 corresponds to a degree of coloration intermediate between scores 3 and 4; 4 corresponds to very intense coloration
Description: (§1) In Table 1 above, as in the following Tables, C represents the color of the colonies after incubation, I represents the intensity of the color, and the symbol “-” corresponds to the absence of color or intensity; finally, IT defines the incubation time. It should be noted that the intensity of the color is scored on an arbitrary scale but one which is consistent for all the biological specimens and media tested. This scale is valid for this experiment as well as all those that follow. It can be defined in the following way: • 0 corresponds to no activity, • 0.1 corresponds to a trace of color, • 0.5 corresponds to very pale coloration, • 1 corresponds to clear but low-intensity coloration, • 1.5 corresponds to a degree of coloration intermediate between scores 1 and 2, • 2 corresponds to clear coloration of moderate intensity, • 2.5 corresponds to a degree of coloration intermediate between scores 2 and 3, • 3 corresponds to intense coloration, • 3.5 corresponds to a degree of coloration intermediate between scores 3 and 4, • 4 corresponds to very intense coloration.
(§2) A stock solution of each substrate at a concentration of 40 g/l was made up in a mixture of 40% Dimethylsulfoxide and 60% Tween 20. An appropriate volume was added to four Columbia-type media while cooling to give a final substrate concentration of 250 mg/l. These dishes were divided into three areas and then each area was inoculated with a suspension (density=0.5 McFarland) of microorganisms taken from either the Applicant's own collection or the ATCC. The dishes were incubated for 48 hours at 37° C. The colonies which grew were examined by eye after 24 and 48 hours of incubation. Both the color and the intensity of the color of the colonies were recorded.

Listeria innocua 166 = experiment: as above; set-up: key: —: the symbol “-” corresponds to the absence of color or intensity; 0 corresponds to no activity; 0.1 corresponds to a trace of color; 0.5 corresponds to very pale coloration; 1 corresponds to clear but low-intensity coloration; 1.5 corresponds to a degree of coloration intermediate between scores 1 and 2; 2 corresponds to clear coloration of moderate intensity; 2.5 corresponds to a degree of coloration intermediate between scores 2 and 3; 3 corresponds to intense coloration; 3.5 corresponds to a degree of coloration intermediate between scores 3 and 4; 4 corresponds to very intense coloration
Description: as §1, §2

[1] = test system: Listeria monocytogenes 092; experiment: Experiment 1: esterase substrates, same chromogenic marker, fatty acids of different chain lengths; set-up: key to I (intensity of the color): —: the symbol “-” corresponds to the absence of color or intensity; 0 corresponds to no activity; 0.1 corresponds to a trace of color; 0.5 corresponds to very pale coloration; 1 corresponds to clear but low-intensity coloration; 1.5 corresponds to a degree of coloration intermediate between scores 1 and 2; 2 corresponds to clear coloration of moderate intensity; 2.5 corresponds to a degree of coloration intermediate between scores 2 and 3; 3 corresponds to intense coloration; 3.5 corresponds to a degree of coloration intermediate between scores 3 and 4; 4 corresponds to very intense coloration
Description: as §2, with “Polyoxyethylenesorbitan Monolaurate (Tween 20).” for “Tween 20.”, “three” for “four”
as §1

[2] = test system: Listeria monocytogenes ATCC 19117; experiment: Experiment 2: octanoate esterase substrates with different Indoxyl-based chromogenic markers; set-up: key to I (intensity of the color): —: the symbol “-” corresponds to the absence of color or intensity; 0 corresponds to no activity; 0.1 corresponds to a trace of color; 0.5 corresponds to very pale coloration; 1 corresponds to clear but low-intensity coloration; 1.5 corresponds to a degree of coloration intermediate between scores 1 and 2; 2 corresponds to clear coloration of moderate intensity; 2.5 corresponds to a degree of coloration intermediate between scores 2 and 3; 3 corresponds to intense coloration; 3.5 corresponds to a degree of coloration intermediate between scores 3 and 4; 4 corresponds to very intense coloration
Description: as §1, §2

[3] = test system: Listeria monocytogenes ATCC 19115; experiment: as above; set-up: key to I (intensity of the color): —: the symbol “-” corresponds to the absence of color or intensity; 0 corresponds to no activity; 0.1 corresponds to a trace of color; 0.5 corresponds to very pale coloration; 1 corresponds to clear but low-intensity coloration; 1.5 corresponds to a degree of coloration intermediate between scores 1 and 2; 2 corresponds to clear coloration of moderate intensity; 2.5 corresponds to a degree of coloration intermediate between scores 2 and 3; 3 corresponds to intense coloration; 3.5 corresponds to a degree of coloration intermediate between scores 3 and 4; 4 corresponds to very intense coloration
Description: as §1, §2

[4] = test system: Listeria monocytogenes 092; experiment: as above; set-up: key to I (intensity of the color): —: the symbol “-” corresponds to the absence of color or intensity; 0 corresponds to no activity; 0.1 corresponds to a trace of color; 0.5 corresponds to very pale coloration; 1 corresponds to clear but low-intensity coloration; 1.5 corresponds to a degree of coloration intermediate between scores 1 and 2; 2 corresponds to clear coloration of moderate intensity; 2.5 corresponds to a degree of coloration intermediate between scores 2 and 3; 3 corresponds to intense coloration; 3.5 corresponds to a degree of coloration intermediate between scores 3 and 4; 4 corresponds to very intense coloration
Description: as §1, §2

Structure (SMILES) | C (color of the colonies) (Listeria innocua 171; IT 24 h) | I (intensity of the color) (Listeria innocua 171; IT 24 h) | C (color of the colonies) (Listeria innocua 171; IT 48 h) | I (intensity of the color) (Listeria innocua 171; IT 48 h) | C (color of the colonies) (Listeria innocua 166; IT 24 h) | I (intensity of the color) (Listeria innocua 166; IT 24 h) | C (color of the colonies) (Listeria innocua 166; IT 48 h) | I (intensity of the color) (Listeria innocua 166; IT 48 h) | C (color of the colonies) ([2]; IT 24 h) | I (intensity of the color) ([2]; IT 24 h) | C (color of the colonies) ([2]; IT 48 h) | I (intensity of the color) ([2]; IT 48 h) | C (color of the colonies) ([3]; IT 24 h) | I (intensity of the color) ([3]; IT 24 h) | C (color of the colonies) ([3]; IT 48 h) | I (intensity of the color) ([3]; IT 48 h) | C (color of the colonies) ([4]; IT 24 h) | I (intensity of the color) ([4]; IT 24 h) | C (color of the colonies) ([4]; IT 48 h) | I (intensity of the color) ([4]; IT 48 h) | further results
CCCCCCCC(=O)Oc1c[nH]c2ccc(Br)cc12 [Blue-C8, 5-Bromo-3-indolyl octanoate] | — | — | gray | 0.3 | gray | 0.3 | gray | 1 | gray | 1 | gray | 2 | gray | 1 | gray | 2 | gray | 1.5 | gray | 2.5 | C (color of the colonies) ([1]; IT 24 h): gray; I (intensity of the color) ([1]; IT 24 h): 1.5; C (color of the colonies) ([1]; IT 48 h): gray; I (intensity of the color) ([1]; IT 48 h): 2.5
CCCCCCCC(=O)Oc1c[nH]c2cc(Cl)c(Br)cc12 [Magenta-C8, 5-Bromo-6-chloro-3-indolyl octanoate] | purple | 0.5 | purple | 3 | purple | 2 | purple | 3 | purple | 1.5 | purple | 3.5 | purple | 2 | purple | 3 | purple | 3 | purple | 3 | 
CCCCCCCC(=O)Oc1c[nH]c2cc(Cl)ccc12 [Pink-C8, 6-Chloro-3-indolyl octanoate] | — | — | pink | 0.3 | — | — | pink | 0.3 | pink | 0.5 | pink | 1 | pink | 0.5 | pink | 1 | pink | 1.5 | pink | 2 | 
CCCCCCCCC(=O)Oc1c[nH]c2ccc(Br)cc12 [Blue-C9, 5-Bromo-3-indolyl nonanoate] |  |  |  |  |  |  |  |  |  |  |  |  |  |  |  |  |  |  |  |  | C (color of the colonies) ([1]; IT 24 h): gray; I (intensity of the color) ([1]; IT 24 h): 1; C (color of the colonies) ([1]; IT 48 h): gray; I (intensity of the color) ([1]; IT 48 h): 2
CCCCCCCCCC(=O)Oc1c[nH]c2ccc(Br)cc12 [Blue-C10, 5-Bromo-3-indolyl decanoate] |  |  |  |  |  |  |  |  |  |  |  |  |  |  |  |  |  |  |  |  | C (color of the colonies) ([1]; IT 24 h): gray; I (intensity of the color) ([1]; IT 24 h): 1; C (color of the colonies) ([1]; IT 48 h): gray; I (intensity of the color) ([1]; IT 48 h): 2
CCCCCCCC(=O)Oc1c[nH]c2ccc(Br)c(Cl)c12 [X-C8, 5-Bromo-4-chloro-3-indolyl octanoate] |  | — | turquoise | 0.3 | turquoise | 0.3 | turquoise | 0.5 | turquoise | 2 | turquoise | 3 | turquoise | 2.5 | turquoise | 3 | turquoise | 3 | turquoise | 3.5 | 
